Columns and labels:
Assay in all cases: Germination assay in 48-well plates (tolerance factor)
Type in all cases: in vivo, Arabidopsis thaliana
Settings in all cases: plant growth IC50 transgenic / wildtype; mean of 5 T2 events; non-transgenic set to 1
[1] = test system: Arabidopsis overexpression line SoHPPD (SEQ ID NO: 4)
Procedure: (§1) Tolerance to HPPD-inhibiting herbicides can also be assessed in Arabidopsis. In this case transgenic Arabidopsis thaliana plants are assayed for improved tolerance to HPPD-inhibiting herbicides in 48-well plates (germination assay). Seeds are surface sterilized by stirring for 5 min in ethanol+water (70+30 by volume), rinsing one time with ethanol+water (70+30 by volume) and two times with a sterile, deionized water. The seeds are resuspended in 0.1% agar dissolved in water (w/v). Four to five seeds per well are plated on solid nutrient medium consisting of half-strength Murashige Skoog nutrient solution, pH 5.8 (Murashige and Skoog (1962) Physiologia Plantarum 15: 473-497). Compounds are dissolved in dimethylsulfoxid (DMSO) and added to the medium prior solidification (final DMSO concentration 0.1%). Multi well plates are incubated in a growth chamber at 22° C., 75% relative humidity and 110 μmol Phot*m−2*s−1 with 14:10 h light:dark photoperiod. Growth inhibition is evaluated seven to ten days after seeding in comparison to wild type plants. Tolerance factor is calculated by dividing the plant growth IC50 value of transgenic plants containing a HPPD sequence by that of wildtype plants.

[2] = test system: Arabidopsis overexpression line SoHPPD I455V
Procedure: as §1

[3] = test system: Arabidopsis overexpression line SoHPPD Q317H, A318G, E345Q (short)
Procedure: as §1

Work on `Cc1c(C(=O)c2cnn(C)c2O)ccc(S(C)(=O)=O)c1C1=NOCC1` [Inhibitor 1, [3-(4,5-dihydroisoxazol-3-yl)-2-methyl-4-methylsulfonyl-phenyl]-(5-hydroxy-1-methyl-pyrazol-4-yl)methanone] yielded a Tolerance factor [1] of 82, a Tolerance factor [2] of 7 and a Tolerance factor [3] of 50.

Reference: patent US11248234B2, “Herbicide-resistant hydroxyphenylpyruvate dioxygenases” (BASF SE, priority 2015, dated 2022)
